Measured values: patent publication US20140357512A1, “HISTONE DEACETYLASE (HDAC) BIOMARKERS IN MULTIPLE MYELOMA” (priority 2013, published 2014)

Tested on: human myeloma cell line MM.1S
Test: SILAC acetylated-lysine peptide profiling, HDAC inhibitor vs DMSO (light/heavy ratio)
Format: cell-based
Description: An embodiment of the invention comprises utilizing the SILAC method in order to quantitate changes in protein expression between two or more populations of cells. The SILAC method is a technique based on mass spectrometry that detects differences in protein abundance among samples using non-radioactive isotopic labeling. The SILAC method is known in the art, and described in detail in Ong et al., “Stable Isotope Labeling by Amino Acids in Cell Culture, SILAC, as a Simple and Accurate Approach to Expression Proteomics”, Molecular & Cellular Proteomics, vol. 1, pp. 376-386 (2002), which is incorporated herein by reference in its entirety.
Briefly, the SILAC method involves growing two populations of cells in cell culture. The first population of cells is grown in growth media containing normal amino acids (“normal media”). The second population of cells is grown in media lacking a standard essential amino acid (such as lysine), but is then supplemented with a non-radioactive, isotopically labeled form of that essential amino acid (such as lysine labeled with ^13C atoms, rather than normal ^12C atoms), which is called “heavy media”. When the two populations of cells are each growing in the medium, they incorporate the amino acids into all of their proteins. The growth of cells maintained in the heavy media is no different from that in normal media. All peptides containing the heavy amino acids are heavier than their normal counterparts. The cells from each of the two populations of cells are lysed. The lysates from each of the two cell populations are then combined. The combined cell lysates are then analyzed by mass spectrometry. Pairs of chemically identical peptides of different stable isotope composition can be differentiated in a mass spectrometer due to their difference in mass. The ratio of peak intensities in the mass spectrum for such peptide pairs reflects the abundance ratio for the two proteins.
This example describes SILAC studies that were performed to compare the effects of three different HDAC inhibitors (Compound A, Compound B, and tubastatin A) to a control on a human multiple myeloma cell line. The HDAC inhibitors were also compared amongst themselves to determine differences in their effects.
A human myeloma cell line MM.1S was grown using either ^12C (light) or ^13C (heavy) lysine containing culture medium. The “heavy” cells were treated with DMSO as the control, and the “light” cells were treated with a single HDAC inhibitor at 37° C. for 6 hours. The heavy and light cells were lysed, and the lysates were mixed in 1:1 ratio and digested with the protease trypsin. The acetylated lysine containing peptides (due to the action of the HDAC inhibitor) in the digested peptide pool were captured by a non-specific anti-acetylated lysine antibody cocktail (the antibodies identify both light and heavy acetylated peptides), and subjected to mass spectrometry analysis in order to identify thousands of individual peptides.
Thousands of peptides were identified in pairs (^12C and ^13C) due to their known mass differences. The amino acid sequence and quantitative ratio (Light/Heavy) of a given peptide in two differentially treated cell lysates were then determined and annotated with their possible protein (gene) sources.
As stated above, three HDAC inhibitors (Compound A, Compound B, and Tubastatin A) were used. Thus, the SILAC method was performed three times, with a different HDAC inhibitor compared to a control each time. Accordingly, there are three pairs of quantitative data in the table below, i.e., Compound A:DMSO, Compound B:DMSO, and Tubastatin A:DMSO. A cut-off of 1.30 fold of change (increase or decrease) was then used to determine “changed” or “+” in the table, and any peptides with a fold of change less than 1.3 fold were determined to be “unchanged” or “0” in the table. Those peptides that were not identified were marked as “NA” in the table. […]

O=C(CCCCCCNC(=O)c1cnc(N(c2ccccc2)c2ccccc2)nc1)NO [Compound A, 2-(diphenylamino)-N-(7-(hydroxyamino)-7-oxoheptyl)pyrimidine-5-carboxamide]
light to heavy ratio (L/H ratio) of acetylated peptide GAGTDEK(ac)TLTR (SEQ ID NO: 621) (Annexin A6 [620], gene ANXA6, inhibitor:DMSO): 0.48 log 2
light to heavy ratio (L/H ratio), log 2 scale, acetylated peptide EFIEK(ac)YDK (SEQ ID NO: 779) (Annexin A6 [644], gene ANXA6, drug:DMSO): 1.00
light to heavy ratio (L/H ratio) of acetylated peptide DDNGK(ac)PYVLPSVR (SEQ ID NO: 579) (Aspartate aminotransferase mitochondrial [73], gene GOT2, inhibitor:DMSO): 0.43 log 2
light to heavy ratio (L/H ratio) of acetylated peptide LMEK(ac)EINGSK (SEQ ID NO: 517) (Atlastin-3 [309], gene ATL3, inhibitor:DMSO): −0.56 log 2
light to heavy ratio (L/H ratio) of acetylated peptide ELK(ac)EIQYGIR (SEQ ID NO: 540) (Branched-chain-amino-acid aminotransferase [337], gene BCAT2, inhibitor:DMSO): 0.39 log 2
light to heavy ratio (L/H ratio), log 2 scale, acetylated peptide ESCSK(ac)[…] (SEQ ID NO: 780) (Bromodomain and PHD finger-containing protein 3 [105], gene BRPF3, drug:DMSO): 1.00
L/H ratio of acetylated peptide FYGDEEK(ac)[…] (SEQ ID NO: 25) (CALR [62], log 2 scale, drug vs DMSO): 0.00
light to heavy ratio (L/H ratio) of acetylated peptide LQVLDPVPK(ac)PVIK (SEQ ID NO: 539) (CD48 antigen [133], gene CD48, inhibitor:DMSO): 0.39 log 2
light to heavy ratio (L/H ratio) of acetylated peptide AGLQVYNK(ac)CWK (SEQ ID NO: 260) (CD59 glycoprotein [63], CD59, drug:DMSO): 0.41 log 2
L/H ratio of acetylated peptide […](ac)R (SEQ ID NO: 26) (CLTC [637], log 2 scale, drug vs DMSO): 0.00
L/H ratio of acetylated peptide FK(ac)ESFAEMNR (SEQ ID NO: 1) (COX4I1 [87], log 2 scale, drug vs DMSO): 0.00
L/H ratio of acetylated peptide […](ac)QLCTIPR (SEQ ID NO: 27) (CREBBP [1216], log 2 scale, drug vs DMSO): 0.00
L/H ratio of acetylated peptide TNK(ac)NK(ac)SSISR (SEQ ID NO: 13) (CREBBP [1595:1597], log 2 scale, drug vs DMSO): 1.00
L/H ratio of acetylated peptide ALK(ac)DLYCHK (SEQ ID NO: 28) (CREM [240], log 2 scale, drug vs DMSO): 0.00
L/H ratio of acetylated peptide LYCPK(ac)CMDVYTPK (SEQ ID NO: 29) (CSNK2B [139], log 2 scale, drug vs DMSO): 0.00
light to heavy ratio (L/H ratio) of acetylated peptide NSFDCFK(ac)K (SEQ ID NO: 605) (Calcium-binding mitochondrial carrier protein Aralar2 [379], gene SLC25A13, inhibitor:DMSO): 0.46 log 2
light to heavy ratio (L/H ratio) of acetylated peptide FVLSSGK(ac)FYGDEEKDK (SEQ ID NO: 281) (Calreticulin [55], CALR, drug:DMSO): 0.58 log 2
light to heavy ratio (L/H ratio) of acetylated peptide VHVIFNYK(ac)GK (SEQ ID NO: 273) (Calreticulin [151], CALR, drug:DMSO): 0.48 log 2
light to heavy ratio (L/H ratio) of acetylated peptide NVLINK(ac)DIR (SEQ ID NO: 257) (Calreticulin [159], CALR, drug:DMSO): 0.39 log 2
light to heavy ratio (L/H ratio) of acetylated peptide TCDLVGEK(ac)GK (SEQ ID NO: 289) (Cation-dependent mannose-6-phosphate receptor [38], M6PR, drug:DMSO): 0.65 log 2
light to heavy ratio (L/H ratio) of acetylated peptide […](ac)GLLK (SEQ ID NO: 569) (Chloride intracellular channel protein 1 [131], gene CLIC1, inhibitor:DMSO): 0.41 log 2
light to heavy ratio (L/H ratio), log 2 scale, acetylated peptide GFSIPECQK(ac)LLPK (SEQ ID NO: 783) (Citrate synthase mitochondrial [103], gene CS, drug:DMSO): 1.00
light to heavy ratio (L/H ratio) of acetylated peptide […](ac)LR (SEQ ID NO: 566) (Citrate synthase mitochondrial [327], gene CS, inhibitor:DMSO): 0.41 log 2
light to heavy ratio (L/H ratio) of acetylated peptide EFALK(ac)HLPNDPMFK (SEQ ID NO: 583) (Citrate synthase mitochondrial [366], gene CS, inhibitor:DMSO): 0.43 log 2
light to heavy ratio (L/H ratio) of acetylated peptide SMSTEGLMK(ac)FVDSK (SEQ ID NO: 330) (Citrate synthase mitochondrial [459], CS, drug:DMSO): 0.00 log 2
light to heavy ratio (L/H ratio) of acetylated peptide VASK(ac)QLEEEDGSR (SEQ ID NO: 591) (Coatomer subunit gamma [238], gene COPG, inhibitor:DMSO): 0.44 log 2
light to heavy ratio (L/H ratio), log 2 scale, acetylated peptide MIYASSK(ac)DAIKK (SEQ ID NO: 763) (Cofilin-1 [121], gene CFL1, drug:DMSO): 0.93
light to heavy ratio (L/H ratio) of acetylated peptide AAEEVEAK(ac)FK (SEQ ID NO: 328) (Coiled-coil-helix-coiled-coil-helix domain-containing protein 3 mitochondrial [173], CHCHD3, drug:DMSO): 0.00 log 2
light to heavy ratio (L/H ratio) of acetylated peptide ASEIGEK(ac)YR (SEQ ID NO: 586) (Conserved hypothetical protein [484], gene KIAA0947, inhibitor:DMSO): 0.44 log 2
light to heavy ratio (L/H ratio) of acetylated peptide DHCVAHK(ac)LFNNLK (SEQ ID NO: 608) (Cytochrome b-c1 complex subunit 6 mitochondrial [85], gene UQCRH, inhibitor:DMSO): 0.46 log 2
light to heavy ratio (L/H ratio) of acetylated peptide LFDYFPK(ac)PYPNSEAAR (SEQ ID NO: 548) (Cytochrome c1 heme protein mitochondrial [177], gene CYC1, inhibitor:DMSO): 0.39 log 2
light to heavy ratio (L/H ratio) of acetylated peptide YFDEK(ac)IAK (SEQ ID NO: 563) (D-beta-hydroxybutyrate dehydrogenase mitochondrial [280], gene BDH1, inhibitor:DMSO): 0.41 log 2
L/H ratio of acetylated peptide FK(ac)[…] (SEQ ID NO: 30) (DAZAP1 [59], log 2 scale, drug vs DMSO): 0.00
L/H ratio of acetylated peptide APTIVGK(ac)SSLNPILFR (SEQ ID NO: 31) (DDOST [189], log 2 scale, drug vs DMSO): 0.00
L/H ratio of acetylated peptide FGNPGEK(ac)LVK (SEQ ID NO: 34) (DDX5 [40], log 2 scale, drug vs DMSO): 0.00
